Experimental data from patent US20100029775A1, “RENIN INHIBITORS FOR THE PREVENTION AND TREATMENT OF HYPERTENSION IN OBESE PATIENTS” (priority 2006, published 2010).
Marks after values point to notes of the source that are not given here.

System: obese patients with hypertension
Test: Randomized, double-blind, multicenter clinical study: add-on treatment in grade 3 obese hypertensive patients who did not respond to HCTZ 25 mg
Type: in vivo, human
Settings: for BP control rate (in words): grade 3 obesity patients, comparison between treatment groups
Description: The effect of Aliskiren to treat hypertension in patients with obesity was investigated in a clinical study. […] [table]

[1] = Grade 3 obesity (BMI ≧ 40 kg/m^2), least squares mean ± SEM change from baseline at wk 12 endpoint (ANCOVA; intent-to-treat), add-on to HCTZ 25 mg, dose doubled after 4 weeks

Compound | Change in DBP, mmHg [1] | Change in SBP, mmHg [1] | BP control rate (Grade 3 obesity (BMI ≧ 40 kg/m^2), patients reaching <140/90 mmHg, wk 12 endpoint, logistic regression model) | BP control rate (in words)
NS(=O)(=O)c1cc2c(cc1Cl)NCNS2(=O)=O [PBO/HCTZ, hydrochlorothiazide] | −5.9 ± 2.2 mmHg | −7.1 ± 3.2 mmHg | 16.7%** | lower control rates
COCCCOc1cc(C[C@@H](C[C@H](N)[C@@H](O)C[C@H](C(=O)NCC(C)(C)C(N)=O)C(C)C)C(C)C)ccc1OC [aliskiren, 2(S),4(S),5(S),7(S)—N-(3-amino-2,2-dimethyl-3-oxopropyl)-2,7-di(1-methylethyl)-4-hydroxy-5-amino-8-[4-methoxy-3-(3-methoxy-propoxy)phenyl]-octanamide] | – | – | – | highly effective BP control
